Data as given in the supplement of paper PMC8920030.

How the values were obtained:
Details in all cases: growth mode: biofilm, 24 h; exposure time: 24 h
tobramycin [1] = compound: T1, NC[C@H]1O[C@H](O[C@H]2[C@H](O)[C@@H](O[C@H]3O[C@H](CO)[C@@H](O)[C@H](N)[C@H]3O)[C@H](N)C[C@@H]2N)[C@H](N)C[C@@H]1O [tobramycin]; assay: minimum concentration of killing, 1-log CFU reduction of biofilm (MCK90); higher = more biofilm tolerance
Description: (§1)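 Clinical P. aeruginosa isolates were grown as static biofilms for 24 h at 37 °C in LB in half-area 96-well plates, then exposed for 24 h to tobramycin at 1, 4, 16, 64, 256 or […]. Surviving CFU were counted by spotting serial dilutions. MCK is the lowest tested concentration giving the stated log reduction in CFU versus an untreated control; '>1024' means the reduction was not reached at the top dose, and 1 is the lowest dose tested (≤1).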

colistin [2] = compound: T2, CCC(C)CCCC(=O)N[C@@H](CCN)C(=O)N[C@H](C(=O)N[C@@H](CCN)C(=O)N[C@H]1CCNC(=O)[C@H]([C@@H](C)O)NC(=O)[C@H](CCN)NC(=O)[C@H](CCN)NC(=O)[C@H](CC(C)C)NC(=O)[C@@H](CC(C)C)NC(=O)[C@H](CCN)NC1=O)[C@@H](C)O [colistin]; assay: as above
Description: (§2)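 Clinical P. aeruginosa isolates were grown as static biofilms for 24 h at 37 °C in LB in half-area 96-well plates, then exposed for 24 h to colistin at 1, 4, 16, 64, 256 or […]. Surviving CFU were counted by spotting serial dilutions. MCK is the lowest tested concentration giving the stated log reduction in CFU versus an untreated control; '>1024' means the reduction was not reached at the top dose, and 1 is the lowest dose tested (≤1).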

colistin [3] = compound: T2, colistin; assay: minimum concentration eradicating biofilm below detection limit (MCK-E); higher = more biofilm tolerance
Description: as §2

tobramycin [4] = compound: T1, tobramycin; assay: as above
Description: as §1

colistin [5] = compound: T2, colistin; assay: minimum concentration of killing, 2-log CFU reduction of biofilm (MCK99); higher = more biofilm tolerance
Description: as §2

tobramycin [6] = compound: T1, tobramycin; assay: as above
Description: as §1

tobramycin [7] = compound: T1, tobramycin; assay: minimum concentration of killing, 4-log CFU reduction of biofilm (MCK99.99); higher = more biofilm tolerance
Description: as §1

colistin [8] = compound: T2, colistin; assay: as above
Description: as §2

| Test System | minimum concentration of killing (tobramycin [1]) | minimum concentration of killing (colistin [2]) | minimum concentration eradicating biofilm below detection limit (colistin [3]) | minimum concentration eradicating biofilm below detection limit (tobramycin [4]) | minimum concentration of killing (colistin [5]) | minimum concentration of killing (tobramycin [6]) | minimum concentration of killing (tobramycin [7]) | minimum concentration of killing (colistin [8]) |
| --- | --- | --- | --- | --- | --- | --- | --- | --- |
| Pseudomonas aeruginosa clinical isolate CH2677 | 256 µg/mL | 64 µg/mL | 256 µg/mL | > 1020 µg/mL | 64 µg/mL | 1020 µg/mL | 1020 µg/mL | 256 µg/mL |
| Pseudomonas aeruginosa clinical isolate F1688 | 4 µg/mL | 16 µg/mL | 256 µg/mL | 256 µg/mL | 256 µg/mL | 4 µg/mL | 256 µg/mL | 256 µg/mL |
| Pseudomonas aeruginosa clinical isolate CH5597 | ≤ 1 µg/mL | 64 µg/mL | 64 µg/mL | 256 µg/mL | 64 µg/mL | 64 µg/mL | 256 µg/mL | 64 µg/mL |
| Pseudomonas aeruginosa clinical isolate ESP012 | 256 µg/mL | 64 µg/mL | 64 µg/mL | > 1020 µg/mL | 64 µg/mL | > 1020 µg/mL | > 1020 µg/mL | 64 µg/mL |
| Pseudomonas aeruginosa clinical isolate F1759 | ≤ 1 µg/mL | 64 µg/mL | 256 µg/mL | 256 µg/mL | 256 µg/mL | 4 µg/mL | 64 µg/mL | 256 µg/mL |
| Pseudomonas aeruginosa clinical isolate ESP025 | 1020 µg/mL | 16 µg/mL | 64 µg/mL | > 1020 µg/mL | 16 µg/mL | > 1020 µg/mL | > 1020 µg/mL | 16 µg/mL |
| Pseudomonas aeruginosa clinical isolate ESP066 | 256 µg/mL | 256 µg/mL | 1020 µg/mL | > 1020 µg/mL | 256 µg/mL | 256 µg/mL | > 1020 µg/mL | 1020 µg/mL |
| Pseudomonas aeruginosa clinical isolate F1957 | 256 µg/mL | 256 µg/mL | 1020 µg/mL | 1020 µg/mL | 256 µg/mL | 1020 µg/mL | 1020 µg/mL | 256 µg/mL |
| Pseudomonas aeruginosa clinical isolate F1775 | ≤ 1 µg/mL | 16 µg/mL | 256 µg/mL | 1020 µg/mL | 256 µg/mL | ≤ 1 µg/mL | 16 µg/mL | 256 µg/mL |
| Pseudomonas aeruginosa clinical isolate ESP081 | 4 µg/mL | 256 µg/mL | 256 µg/mL | 64 µg/mL | 256 µg/mL | 16 µg/mL | 64 µg/mL | 256 µg/mL |
| Pseudomonas aeruginosa clinical isolate ESP033 | 16 µg/mL | 256 µg/mL | 256 µg/mL | 256 µg/mL | 256 µg/mL | 64 µg/mL | 64 µg/mL | 256 µg/mL |
| Pseudomonas aeruginosa clinical isolate ESP032 | 256 µg/mL | 256 µg/mL | 256 µg/mL | > 1020 µg/mL | 256 µg/mL | 256 µg/mL | 1020 µg/mL | 256 µg/mL |
| Pseudomonas aeruginosa clinical isolate CH2582 | ≤ 1 µg/mL | ≤ 1 µg/mL | 1020 µg/mL | 64 µg/mL | 256 µg/mL | 4 µg/mL | 64 µg/mL | 256 µg/mL |
| Pseudomonas aeruginosa clinical isolate ESP023 | ≤ 1 µg/mL | 64 µg/mL | 64 µg/mL | 16 µg/mL | 64 µg/mL | 16 µg/mL | 16 µg/mL | 64 µg/mL |
